The target in data set [1] is T1, DA receptors in the brain (Rattus norvegicus, UniProt P61169).
T1 construct: from tissue; host or cells: brain of live male Sprague-Dawley rats (in vivo behavioural test)
Kind of data set: Block of apomorphine-induced stereotypies in the rat (0-3 scale). In kind it is in vivo, Male Sprague-Dawley rats. How it is done: There are presently several techniques available to study DA receptor blockage in the brain in vico. One method is based on the ability of antipsychotic drugs to block the behavioural effects induced by the DA agonist apomorphine in the rat.
Directly after injection, the animals were placed in the cages, one in each cage. Scoring of the stereotypies were performed by two separate methods. […] The strength of the stereotype was scored on a 0-3 scale as follows:
3 Continous sniffing. Chewing, biting and licking.
In the second system the number of animals displaying hyperactivity caused by apomorphine were scored. Each group consisted of 6-8 animals. Saline controls were always run simultaneously. […] The ED50 were calculated from log dose-response curves by the method of least squares from 4-6 dose levels with 6-8 animals per dose level.

Data set [2] deals with DA receptors in the brain. Kind of data set: Block of apomorphine-induced hyperactivity in the rat. In kind it is in vivo, Male Sprague-Dawley rats. The settings on record: for potency to block apomorphine, ED50 Hyperactivity: p.o., rat; for Block of apomorphine ED50, hyperactivity: i.p., 60 min prior to apomorphine HCl 1 mg/kg s.c. From the text: There are presently several techniques available to study DA receptor blockage in the brain in vico. One method is based on the ability of antipsychotic drugs to block the behavioural effects induced by the DA agonist apomorphine in the rat. […] The stereotypies (chewing, […], biting) appear mainly to be induced via activation of DA receptors linked to the neostriatal DA system (J. Psychiat. […] Directly after injection, the animals were placed in the cages, one in each cage. Scoring of the stereotypies were performed by two separate methods. […] The strength of the stereotype was scored on a 0-3 scale as follows: In the second system the number of animals displaying hyperactivity caused by apomorphine were scored. Each group consisted of 6-8 animals. Saline controls were always run simultaneously.

The conditions of data set [3]: experimental animals; cited from earlier work.
For data set [4] the following is noted: in vivo; cited from earlier work.
Setting [5] is: po, rat, read-out: potency to block apomorphine, ED50 Stereotypies.
Where [6] appears, read: rat, ip, 60 min prior to apomorphine HCl 1 mg/kg s.c., read-out: Block of apomorphine ED50, stereotypes.

Read-outs that look alike come from different tables or passages of the source.

T1 sequence (P61169 whole entry): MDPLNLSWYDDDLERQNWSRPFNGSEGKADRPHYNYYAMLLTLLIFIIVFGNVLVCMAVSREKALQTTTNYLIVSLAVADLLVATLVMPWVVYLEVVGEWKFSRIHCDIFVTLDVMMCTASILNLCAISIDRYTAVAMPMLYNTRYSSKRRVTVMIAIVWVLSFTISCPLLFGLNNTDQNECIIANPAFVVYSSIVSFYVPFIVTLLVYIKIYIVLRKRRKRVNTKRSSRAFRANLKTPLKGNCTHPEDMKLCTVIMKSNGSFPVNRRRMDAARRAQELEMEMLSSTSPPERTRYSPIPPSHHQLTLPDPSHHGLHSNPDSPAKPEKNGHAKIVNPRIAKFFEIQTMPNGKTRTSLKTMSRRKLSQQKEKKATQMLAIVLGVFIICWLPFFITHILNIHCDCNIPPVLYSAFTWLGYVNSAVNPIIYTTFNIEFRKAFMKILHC

For orientation: ED50 means the dose that gives a 50% effect, or the effect in half of the subjects. Take `CCOc1ccc(Br)c(O)c1C(=O)NCC1CCCN1CC` (single isomer, unassigned) [901(-)]: the median effective dose (ED50) in data set [1] (setting [5]) was 34 µmol/kg. Further, the “potency to block apomorphine, ED50 Hyperactivity” value in data set [2] is 3.0 µmol/kg.
For the molecule `CCN1CCCC1CNC(=O)c1c(O)c(Br)cc(Br)c1OC` (single isomer, unassigned) [FLA 659 (-)], in data set [1] (setting [5]), the ED50 was found to be 12 µmol/kg. The ED50 in data set [1] (setting [6]) amounted to 2.3 µmol/kg. In data set [2], the “Block of apomorphine ED50, hyperactivity” value turned out to be 0.40 µmol/kg and the “potency to block apomorphine, ED50 Hyperactivity” value is 3.2 µmol/kg.
The like results for `CCN1CCCC1CNC(=O)c1c(OC)ccc(Br)c1O` (single isomer, unassigned) [FLA 797 (-)] were, in that order, 22 µmol/kg, 0.38 µmol/kg, 0.035 µmol/kg and 3 µmol/kg.
The like results for `CCN1CCCC1CNC(=O)c1c(OC)ccc(Cl)c1O` (single isomer, unassigned) [FLA 814 (-)] were, in that order, 25 µmol/kg, 1.1 µmol/kg, 0.14 µmol/kg and 4.4 µmol/kg.
Take `CCN1CCCC1CNC(=O)c1c(O)c(Cl)cc(Cl)c1OC` (single isomer, unassigned) [FLA 870 (-)]: in data set [1] (i.p., 60 min prior to apomorphine HCl 1 mg/kg s.c.), the “Block of apomorphine ED50, stereotypes” value was determined as 2.4 µmol/kg. In addition, the “Block of apomorphine ED50, hyperactivity” value in data set [2] came out at 0.11 µmol/kg.
With `CCCN1CCCC1CNC(=O)c1c(OC)ccc(Br)c1O` (single isomer, unassigned) [FLA 889 (-)], the ED50 in data set [1] (setting [6]) came to 0.75 µmol/kg. The “Block of apomorphine ED50, hyperactivity” value in data set [2] worked out at 0.27 µmol/kg.
Taken in the same sequence, the figures for `CCN1CCCC1CNC(=O)c1c(OC)ccc(Br)c1O` (stereo not drawn) [FLA 797] were 1.1 µmol/kg and 0.22 µmol/kg.
The like results for `CCOc1ccc(Br)c(O)c1C(=O)NCC1CCCN1CC` (stereo not drawn) [FLA 901] were, in that order, 3.4 µmol/kg and 1.1 µmol/kg.
With `CCN1CCCC1CNC(=O)c1c(OC)ccc(Br)c1OC(C)=O` (stereo not drawn) [FLA 903], the ED50 in data set [1] (setting [6]) stood at 0.53 µmol/kg.
With `CCN1CCCC1CNC(=O)c1c(O)ccc(Br)c1OC` (stereo not drawn) [FLA 908], the median effective dose (ED50) in data set [1] (setting [6]) is 10 µmol/kg. Besides, in data set [2], the “Block of apomorphine ED50, hyperactivity” value is 1.1 µmol/kg.
In the case of `CCN1CCCC1CNC(=O)c1cc(S(N)(=O)=O)ccc1OC` (stereo not drawn) [Sulpiride, reference compound], the catalepsy result in data set [3] is “weak catalepsy”. Further, in data set [4], the extrapyramidal side effects result is “weak extrapy ramidal side effects”. Besides, the “activity after oral administration” value in data set [1] (p.o., rat, apomorphine stereotypies and hyperactivity, in words) is on record as “lost all activity”. Moreover, the ED50 in data set [1] (rat, ip, read-out: Block of apomorphine ED50, stereotypes) is 203 µmol/kg. Moreover, the “Block of apomorphine ED50, hyperactivity” value in data set [2] was found to be 50 µmol/kg.
